Measurements published in patent publication US9180118B2, “Thiadiazolidinone derivatives” (University of Rochester, priority 2006, dated 2015).
pIC50: −log10 of the molar value. Several values for one entry are separate records, joined by “and”; a condition that tells them apart may be missing. Equal values may be shown once. Read-outs that look alike come from different tables or passages of the source.

What was measured:
primary ALL specimens = assay: Viability of primary ALL specimens, Annexin V/7-AAD; format: cell-based; conditions: Homo sapiens, 24 h; read-out: mean viability relative to untreated controls
CD34+CD10− ALL cells = assay: Viability of CD34+CD10− cells from ALL specimens; format: cell-based; conditions: Homo sapiens, 24 h
normal progenitor cells = assay: Methylcellulose colony assay, normal specimens; format: cell-based, human; conditions: 20 μM TDZD-8, 18 hours before plating, n=12
Procedure: (§1) Cells were then plated at 50,000 cells/ml in Methocult™ GF H4534 (1% methylcellulose in IMDM, 30% FBS, 1% BSA, 10^−4M 2-mercaptoethanol, 2 mM L-glutamine, 50 ng/ml rh stem cell factor, 10 ng/ml rh GM-CSF, 10 ng/ml rh IL-3-Stem Cell Technologies, Vancouver, B.C.) supplemented with 3 units/ml of erythropoietin and 50 ng/ml G-CSF (R&D Systems, Minneapolis, Minn.). Colonies were scored after 10-14 days of culture.

bcCML progenitor cells = assay: Methylcellulose colony assay, bcCML; format: cell-based, human; conditions: 20 μM TDZD-8, 18 hours before plating, n=3
Procedure: as §1

[1] = tested on: normal CB cells (hematopoietic stem cells); assay: NOD/SCID xenotransplant engraftment of normal CB cells treated in culture; format: in vivo, human; conditions: cells cultured 18 hours with 20 μM TDZD-8; n=3; NOD/SCID mice
Procedure: NOD/SCID (NOD.CB17-prdkdc scid/J) mice (Jackson Laboratories, Bar Harbor, Me.) were sub-lethally irradiated with 270 rad using a RadSource™ X-ray irradiator the day before transplantation. Cells to be assayed (AML or normal umbilical cord blood—CB) were injected via tail vein (5-10 million cells) in a final volume of 0.2 ml of PBS with 0.5% FBS. After 6-8 weeks, animals were sacrificed and BM was isolated.

normal specimens = assay: Free thiol analysis by mBBr labeling, normal specimens; format: cell-based, human; conditions: 20 μM TDZD-8
Procedure: C. […] Intracellular thiol levels were assessed by flow cytometry after labeling with 50 μM monobromobimane (molecular probes).

[2] = tested on: normal specimens (BM or CB); assay: Membrane integrity by YoPro-1 uptake, normal specimens; format: cell-based, human; conditions: 20 μM TDZD-8 for 15 min
Procedure: C. […] Cells were then washed with PBS and stained to assess membrane permeability using annexin V-Allophycocyanin (APC) and the vital dyes: Yo-[…] (0.1 uM), Hoescht 33342 (2.5 ug/ml), and Propidium Iodide (0.5 ug/ml) (Molecular Probes).

[3] = tested on: pro-caspases 3, 8 or PARP; assay: Immunoblot for caspase-dependent apoptotic events; format: cell-based, human; conditions: TDZD-8 treated cells, data not shown
Procedure: (§2) Immunoblots. Cells were prepared and analyzed as previously described.^35 Membrane fractions were prepared using mem-PER eukaryotic membrane protein extraction kit as per manufacturer's instructions (Pierce; Rockford, Ill.). Blots were probed with phospho-PKC (pan) (beta II; Ser660), phospho-PKCalpha/betaII (Thr638/641), total PKCα, PKCβ and FLT3 (Santa Cruz Biotechnology, Calif.), Caspase-3 (Cell Signaling technologies; Danvers, Mass.); caspase-8 and PARP (BD bioscience), cleaved PARP (abcam) or anti-actin (AC-15; Sigma) antibodies.

[4] = tested on: plasma membrane localized PKCα and β in primary CD34+ AML and ALL cells; assay: Immunoblot of membrane fractions for PKCα and PKCβ; format: cell-based, human; conditions: TDZD-8 for 1 hour
Procedure: as §2

[5] = tested on: phospho-FLT3 in CD34+ AML cells; assay: Phospho-FLT3 flow cytometry, CD34+ population of primary AML; format: cell-based, human; conditions: 30 minutes after addition of drug
[6] = tested on: Breast cancer, 7 cell lines; assay: NCI-60 screen; format: cell-based; conditions: Homo sapiens
Text: (§3) In contrast the cell viability for normal specimens was 79.5% (n=13).

CCRF-CEM = assay: NCI-60 screen; format: cell-based; conditions: Homo sapiens
Text: as §3

CNS cancer, 6 cell lines = assay: NCI-60 screen; format: cell-based; conditions: Homo sapiens
Text: as §3

[7] = tested on: Colon cancer, 7 cell lines; assay: NCI-60 screen; format: cell-based; conditions: Homo sapiens
Text: as §3

K-562 = assay: NCI-60 screen; format: cell-based; conditions: Homo sapiens
Text: as §3

[8] = tested on: Non-small cell lung cancer, 9 cell lines; assay: NCI-60 screen; format: cell-based; conditions: Homo sapiens
Text: as §3

[9] = tested on: Ovarian cancer, 5 cell lines; assay: NCI-60 screen; format: cell-based; conditions: Homo sapiens
Text: as §3

RPMI-8226 = assay: NCI-60 screen; format: cell-based; conditions: Homo sapiens
Text: as §3

SR = assay: NCI-60 screen; format: cell-based; conditions: Homo sapiens
Text: as §3

[10] = tested on: cell lines derived from hematologic malignancies; assay: NCI-60 screen, average; format: cell-based; conditions: Homo sapiens; average over hematologic lines of NCI-60; read-out: average concentration to achieve 50% growth inhibition (GI50)
Text: as §3

All other tumor lines = assay: NCI-60 screen, other lines; format: cell-based; conditions: Homo sapiens; NCI-60, non-hematologic lines; read-out: concentration up to which no growth inhibition was shown
Text: as §3

GSK3B (GSK3 beta) = GSK3B (GSK3 beta) (Homo sapiens, UniProt P49841); assay: Kinase assay (single point and titration); format: biochemical; conditions: TDZD-8 20 μM
Chain of GSK3B (GSK3 beta) (P49841 whole entry): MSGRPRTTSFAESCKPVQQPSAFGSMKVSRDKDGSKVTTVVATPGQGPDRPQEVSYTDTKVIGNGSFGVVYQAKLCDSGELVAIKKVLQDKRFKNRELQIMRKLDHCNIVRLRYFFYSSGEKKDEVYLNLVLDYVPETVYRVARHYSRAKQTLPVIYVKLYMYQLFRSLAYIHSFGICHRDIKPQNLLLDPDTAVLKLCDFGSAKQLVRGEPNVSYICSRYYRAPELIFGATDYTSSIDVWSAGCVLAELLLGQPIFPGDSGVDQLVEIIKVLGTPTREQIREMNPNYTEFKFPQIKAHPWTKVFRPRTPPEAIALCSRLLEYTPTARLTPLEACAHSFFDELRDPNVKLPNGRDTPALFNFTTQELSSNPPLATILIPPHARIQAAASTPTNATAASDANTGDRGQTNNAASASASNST

FLT3 = FLT3 (Homo sapiens, UniProt P36888); assay: Kinase assay (single point and titration); format: biochemical
Chain of FLT3 (P36888 27-993): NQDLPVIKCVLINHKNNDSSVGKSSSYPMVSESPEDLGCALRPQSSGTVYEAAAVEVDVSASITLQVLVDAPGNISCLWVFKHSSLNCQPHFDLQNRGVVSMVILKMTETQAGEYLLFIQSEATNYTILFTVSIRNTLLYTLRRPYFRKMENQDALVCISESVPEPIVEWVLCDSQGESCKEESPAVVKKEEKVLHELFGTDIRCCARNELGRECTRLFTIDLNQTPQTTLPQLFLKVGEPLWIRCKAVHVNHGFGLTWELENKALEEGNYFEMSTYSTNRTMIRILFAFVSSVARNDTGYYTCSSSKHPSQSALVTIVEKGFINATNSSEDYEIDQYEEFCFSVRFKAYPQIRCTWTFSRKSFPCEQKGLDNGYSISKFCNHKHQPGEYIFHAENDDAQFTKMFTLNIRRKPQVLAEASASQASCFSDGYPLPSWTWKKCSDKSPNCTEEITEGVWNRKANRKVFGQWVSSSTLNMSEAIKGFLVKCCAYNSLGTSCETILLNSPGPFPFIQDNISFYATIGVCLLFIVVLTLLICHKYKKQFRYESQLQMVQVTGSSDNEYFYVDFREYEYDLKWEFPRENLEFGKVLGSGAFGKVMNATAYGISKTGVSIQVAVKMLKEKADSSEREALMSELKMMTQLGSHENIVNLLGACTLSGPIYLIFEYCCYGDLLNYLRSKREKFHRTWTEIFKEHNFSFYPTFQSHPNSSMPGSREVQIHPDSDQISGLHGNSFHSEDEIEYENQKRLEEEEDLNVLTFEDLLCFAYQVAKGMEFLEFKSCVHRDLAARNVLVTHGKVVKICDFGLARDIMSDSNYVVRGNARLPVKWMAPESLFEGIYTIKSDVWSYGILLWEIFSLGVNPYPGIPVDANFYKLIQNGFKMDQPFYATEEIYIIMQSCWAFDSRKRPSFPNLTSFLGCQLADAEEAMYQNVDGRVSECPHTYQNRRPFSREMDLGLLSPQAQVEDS
Procedure: (§4) Kinase Assays: Single point and titration assays are performed using protocols (or essentially using protocols) know in the art for kinase activity profiling against a battery of kinase targets, including, for example, those specifically delineated herein. Such assays include, for example, those available from commercial sources, contract research laboratories, and the like.

PRKCB1 (PKC beta I) = PRKCB1 (PKC beta I) (Homo sapiens, UniProt P05771); assay: Kinase assay (single point and titration); format: biochemical
Chain of PRKCB1 (PKC beta I) (P05771 whole entry): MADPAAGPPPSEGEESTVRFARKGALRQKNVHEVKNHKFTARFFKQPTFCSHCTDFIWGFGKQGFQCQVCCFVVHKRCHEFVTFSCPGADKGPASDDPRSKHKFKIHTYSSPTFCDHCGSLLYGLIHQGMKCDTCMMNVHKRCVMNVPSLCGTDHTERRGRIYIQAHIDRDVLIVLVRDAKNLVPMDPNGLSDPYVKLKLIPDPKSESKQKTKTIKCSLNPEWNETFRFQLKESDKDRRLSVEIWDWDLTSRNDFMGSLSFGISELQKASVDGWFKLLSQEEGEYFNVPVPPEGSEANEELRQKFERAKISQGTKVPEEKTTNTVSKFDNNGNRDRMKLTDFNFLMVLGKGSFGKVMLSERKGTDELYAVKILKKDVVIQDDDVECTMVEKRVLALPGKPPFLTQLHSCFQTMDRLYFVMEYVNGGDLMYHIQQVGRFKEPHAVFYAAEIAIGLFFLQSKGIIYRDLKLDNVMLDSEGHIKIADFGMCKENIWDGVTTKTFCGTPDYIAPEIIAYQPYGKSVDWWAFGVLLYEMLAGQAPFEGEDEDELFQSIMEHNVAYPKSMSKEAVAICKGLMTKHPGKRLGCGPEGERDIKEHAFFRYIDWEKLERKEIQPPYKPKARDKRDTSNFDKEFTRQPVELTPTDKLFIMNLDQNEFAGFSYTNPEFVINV
Procedure: as §4

PRKCD (PKC delta) = PRKCD (PKC delta) (Homo sapiens, UniProt Q05655); assay: Kinase assay (single point and titration); format: biochemical
Chain of PRKCD (PKC delta) (Q05655 whole entry): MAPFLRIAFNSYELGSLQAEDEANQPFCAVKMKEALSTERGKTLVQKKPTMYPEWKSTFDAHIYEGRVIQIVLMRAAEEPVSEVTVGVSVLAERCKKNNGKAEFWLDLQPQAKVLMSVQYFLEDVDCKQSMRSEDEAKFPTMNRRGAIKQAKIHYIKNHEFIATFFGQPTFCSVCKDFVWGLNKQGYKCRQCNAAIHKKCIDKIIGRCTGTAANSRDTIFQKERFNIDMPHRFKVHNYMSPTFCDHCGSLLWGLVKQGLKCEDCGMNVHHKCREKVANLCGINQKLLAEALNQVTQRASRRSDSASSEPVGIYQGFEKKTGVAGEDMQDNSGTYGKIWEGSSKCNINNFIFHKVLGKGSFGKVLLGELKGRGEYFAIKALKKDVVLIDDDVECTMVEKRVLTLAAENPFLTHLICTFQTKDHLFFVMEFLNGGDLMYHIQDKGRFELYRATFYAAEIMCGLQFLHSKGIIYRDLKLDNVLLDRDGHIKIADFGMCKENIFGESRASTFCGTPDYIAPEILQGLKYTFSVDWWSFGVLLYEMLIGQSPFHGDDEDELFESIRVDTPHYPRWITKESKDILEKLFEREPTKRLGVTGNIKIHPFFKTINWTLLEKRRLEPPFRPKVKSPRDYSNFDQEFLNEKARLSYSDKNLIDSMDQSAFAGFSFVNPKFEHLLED
Procedure: as §4

PRKCI (PKC iota) = PRKCI (PKC iota) (Homo sapiens, UniProt P41743); assay: Kinase assay (single point and titration); format: biochemical
Chain of PRKCI (PKC iota) (P41743 whole entry): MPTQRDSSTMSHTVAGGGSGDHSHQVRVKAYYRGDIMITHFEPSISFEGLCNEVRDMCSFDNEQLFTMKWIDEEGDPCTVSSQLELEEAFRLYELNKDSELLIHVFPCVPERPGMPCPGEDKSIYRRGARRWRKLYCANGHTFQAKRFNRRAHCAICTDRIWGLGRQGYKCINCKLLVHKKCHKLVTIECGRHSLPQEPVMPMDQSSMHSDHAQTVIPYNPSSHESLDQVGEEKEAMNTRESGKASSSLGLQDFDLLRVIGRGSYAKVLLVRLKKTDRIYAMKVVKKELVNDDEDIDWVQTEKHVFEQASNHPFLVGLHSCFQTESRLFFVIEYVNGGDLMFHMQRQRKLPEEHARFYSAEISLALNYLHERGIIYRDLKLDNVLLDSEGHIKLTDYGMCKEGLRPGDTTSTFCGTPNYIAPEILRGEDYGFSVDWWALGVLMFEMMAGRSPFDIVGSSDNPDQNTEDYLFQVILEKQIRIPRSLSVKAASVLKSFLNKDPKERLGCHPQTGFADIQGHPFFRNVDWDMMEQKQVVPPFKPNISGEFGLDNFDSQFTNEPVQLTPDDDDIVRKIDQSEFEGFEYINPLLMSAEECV
Procedure: as §4

[11] = read-out: Log10 GI50 (converted)
[12] = titration, read-out: in vitro IC50

In the case of `Cn1sc(=O)n(Cc2ccccc2)c1=O` [TDZD-8, 4-benzyl-2-methyl-1,2,4-thiadiazolidine-3,5-dione], the viability at 20 µM (primary ALL specimens) was 12.4%, the viability at 20 µM (CD34+CD10− ALL cells) was 22.3% and the “erythroid colonies, normalized to untreated controls” value (normal progenitor cells) was 94.79%. For the same molecule, the “myeloid colonies, normalized to untreated controls” value (normal progenitor cells) was 84.14%, the “CFU, normalized to untreated controls” value (bcCML progenitor cells) was 16.1% and the “effect on the engraftment of normal specimens” value [1] was “little to no effect”. The “mBBr staining (free thiol groups)” value (normal specimens) was “only slight changes in mBBr staining”, the “rapid uptake of YoPro-1” value [2] was “not evident in normal specimens” and the “cleavage of pro-caspases 3, 8 or PARP” value [3] was “no cleavage of pro-caspases 3, 8 or PARP was detected”. The “plasma membrane localized PKCα and β” value [4] was “decreases”, the “inhibition of FLT3 phosphorylation” value [5] was ~30% and 31% and the GI50 ([6]; read-out: GI50) was greater than 100 µM. For the same molecule, the GI50 [6, 11] was greater than 100 µM, the GI50 (CCRF-CEM; read-out: GI50) was 11.5 µM and the GI50 (CCRF-CEM; [11]) was 11.5 µM. The GI50 (CNS cancer, 6 cell lines; read-out: GI50) was greater than 100 µM, the GI50 (CNS cancer, 6 cell lines; [11]) was greater than 100 µM and the GI50 ([7]; read-out: GI50) was greater than 100 µM. It also gave a GI50 [7, 11] greater than 100 µM, a GI50 (K-562; K562, read-out: GI50) of 6.5 µM and a GI50 (K-562; K562, read-out: Log10 GI50 (converted)) of 6.46 µM. It also gave a GI50 ([8]; read-out: GI50) greater than 100 µM, a GI50 [8, 11] greater than 100 µM and a GI50 ([9]; read-out: GI50) greater than 100 µM. For the same molecule, the GI50 [9, 11] was greater than 100 µM, the GI50 (RPMI-8226; read-out: GI50) was 23.4 µM and the GI50 (RPMI-8226; [11]) was 23.4 µM. It also gave a GI50 (SR; read-out: GI50) of 10 nM, a GI50 (SR; [11]) of 10 nM and a GI50 [10] of 8.3 µM. For the same molecule, the pIC50 (All other tumor lines) was less than 4.00, the “% Inhibition mean” value (GSK3B (GSK3 beta)) was 99% and the inhibition at 20 µM (GSK3B (GSK3 beta)) was 98%. For the same molecule, the inhibition at 20 µM (FLT3) was 99%, the pIC50 (FLT3; titration curve, FIG. 13C, read-out: in vitro IC50) was 6.17 and the inhibition at 20 µM (PRKCB1 (PKC beta I)) was 98%. The pIC50 (PRKCB1 (PKC beta I); [12]) was 5.85, the inhibition at 20 µM (PRKCD (PKC delta)) was 102% and the pIC50 (PRKCD (PKC delta); [12]) was 5.96. The inhibition at 20 µM (PRKCI (PKC iota)) was 100% and the pIC50 (PRKCI (PKC iota); [12]) was 5.26.
